Measurements reported in the supplement of paper PMC7108870.

Legend:
HEK293sieSTAT3(wt) [1] = assay: drug sensitivity score (DSS), cytotoxicity CellTox Green (DSS (dimensionless)); higher = more cytotoxic; extreme values may be limits of the assay; conditions: 72 h; STAT3 variant: wild type
Method in brief: (§1)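 Compounds were acoustically pre-plated in 384-well plates at 5 concentrations spaced by 10-fold dilutions, and HEK293 cells overexpressing wild-type or mutant STAT3 and carrying a STAT3-dependent luciferase reporter were added at 100,000 cells/ml in 20 μl. After 72 hours at 37°C and 5% CO2, the plates were read on a PHERAstar FS for CellTox Green fluorescence (485/520 nm) and then CellTiter-Glo luminescence. A drug sensitivity score derived from dose-response curve area was calculated in Breeze from values normalised to negative and positive control wells.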

HEK293sieSTAT3(Y640F) [2] = assay: as above; conditions: 72 h; STAT3 variant: Y640F (constitutively active)
Method in brief: as §1

HEK293sieSTAT3(wt) [3] = assay: drug sensitivity score (DSS), viability CellTiter-Glo (DSS (dimensionless)); higher = more growth inhibition; extreme values may be limits of the assay; conditions: 72 h; STAT3 variant: wild type
Method in brief: as §1

HEK293sieSTAT3(Y640F) [4] = assay: as above; conditions: 72 h; STAT3 variant: Y640F (constitutively active)
Method in brief: as §1

Structure (SMILES)	drug sensitivity score (HEK293sieSTAT3(wt) [1])	drug sensitivity score (HEK293sieSTAT3(Y640F) [2])	drug sensitivity score (HEK293sieSTAT3(wt) [3])	drug sensitivity score (HEK293sieSTAT3(Y640F) [4])
CC(C)Nc1cc(-c2c[nH]c(C(=O)N[C@H](CO)c3cccc(Cl)c3)c2)c(Cl)cn1 [Ulixertinib] (top concentration tested 10000 nM)	0	0	3.95	4.62
Cn1ncc(Cl)c1-c1cc(C(=O)N[C@H](CN)Cc2ccc(F)c(F)c2)oc1Cl [Uprosertib] (top concentration tested 10000 nM)	0	0	15.3	12.7
Oc1ncc(N(CCCl)CCCl)c(O)n1 [Uramustine] (top concentration tested 10000 nM)	0	0	0.26	0.79
CS(=O)(=O)c1ccc(-c2cnc(N)c(C(=O)Nc3ccccc3)n2)cc1 [VE-821] (top concentration tested 10000 nM)	0	0	2.94	2.27
O=C(O)CC1CC(c2ccccc2)=NO1 (stereo not given) [VGX-1027] (top concentration tested 10000 nM)	0	0	1.07	3.98
CNC(=O)c1ccccc1Nc1cc(Nc2ccc(N3CCOCC3)cc2OC)ncc1C(F)(F)F [VS-4718] (top concentration tested 10000 nM)	0.44	0	7.27	8.98
O=c1ncn2nc(Sc3ccc(F)cc3F)ccc2c1-c1c(Cl)cccc1Cl [VX 745] (top concentration tested 10000 nM)	0	0	2.43	4.64
CCCC(CCC)C(=O)O [Valproic acid] (top concentration tested 1000000 nM)	0	0	3.15	3.24
CCCCC(=O)OCC(=O)[C@]1(O)Cc2c(O)c3c(c(O)c2[C@@H](O[C@H]2C[C@H](NC(=O)C(F)(F)F)[C@H](O)[C@H](C)O2)C1)C(=O)c1c(OC)cccc1C3=O [Valrubicin] (top concentration tested 5000 nM)	0.89	0	22.8	21.9
COc1cc2/c(=N/c3ccc(Br)cc3F)nc[nH]c2cc1OCC1CCN(C)CC1 [Vandetanib] (top concentration tested 1000 nM)	0	0	4.73	2.31
CCc1c(C(=O)C(N)=O)c2c(OCC(=O)O)cccc2n1Cc1ccccc1 [Varespladib] (top concentration tested 10000 nM)	0	0	0	3.29
C[C@@H]1COC(Nc2ccc3ncnc(Nc4ccc(OCc5nccs5)c(Cl)c4)c3c2)=N1 [Varlitinib] (top concentration tested 10000 nM)	0	0	0	0.4
Clc1ccc(Nc2nnc(Cc3ccncc3)c3ccccc23)cc1 [Vatalanib] (top concentration tested 10000 nM)	0	0	1.89	0.9
C[C@]1(c2nc3c(C(N)=O)cccc3[nH]2)CCCN1 [Veliparib] (top concentration tested 10000 nM)	0.43	0	2.28	0
CCCS(=O)(=O)Nc1ccc(F)c(C(=O)c2c[nH]c3ncc(-c4ccc(Cl)cc4)cc23)c1F [Vemurafenib] (top concentration tested 10000 nM)	4.84	3.47	1.57	0
CC1(C)CCC(CN2CCN(c3ccc(C(=O)NS(=O)(=O)c4ccc(NCC5CCOCC5)c([N+](=O)[O-])c4)c(Oc4cnc5[nH]ccc5c4)c3)CC2)=C(c2ccc(Cl)cc2)C1 [Venetoclax] (top concentration tested 1000 nM)	0	0	0	0
O=C(/C=C\n1cnc(-c2cc(C(F)(F)F)cc(C(F)(F)F)c2)n1)NNc1ccccn1 [Verdinexor] (top concentration tested 1000 nM)	10.5	5.2	17.4	15.5
CC[C@]1(O)C[C@@H]2CN(CCc3c([nH]c4ccccc34)[C@@](C(=O)OC)(c3cc4c(cc3OC)N(C)[C@H]3[C@@](O)(C(=O)OC)[C@H](OC(C)=O)[C@]5(CC)C=CCN6CC[C@]43[C@@H]65)C2)C1 [Vinblastine] (top concentration tested 1000 nM)	19.4	5.1	21.8	19.8
CC[C@]1(O)C[C@H]2CN(CCc3c([nH]c4ccccc34)[C@@](C(=O)OC)(c3cc4c(cc3OC)N(C=O)[C@H]3[C@@](O)(C(=O)OC)[C@H](OC(C)=O)[C@]5(CC)C=CCN6CC[C@]43[C@@H]65)C2)C1 [Vincristine] (top concentration tested 1000 nM)	16.2	6.72	23.6	21.2
CCC1=C[C@@H]2CN(C1)Cc1c([nH]c3ccccc13)[C@@](C(=O)OC)(c1cc3c(cc1OC)N(C)[C@H]1[C@@](O)(C(=O)OC)[C@H](OC(C)=O)[C@]4(CC)C=CCN5CC[C@]31[C@@H]54)C2 [Vinorelbine] (top concentration tested 10000 nM)	19.2	5.27	34	30.6
CS(=O)(=O)c1ccc(C(=O)Nc2ccc(Cl)c(-c3ccccn3)c2)c(Cl)c1 [Vismodegib] (top concentration tested 10000 nM)	0.14	0	0.09	0.91
CC[C@@H]1C(=O)N(C)c2cnc(Nc3ccc(C(=O)N[C@H]4CC[C@H](N5CCN(CC6CC6)CC5)CC4)cc3OC)nc2N1C(C)C [Volasertib] (top concentration tested 1000 nM)	21.4	12.6	21.7	22.1
O=C(CCCCCCC(=O)Nc1ccccc1)NO [Vorinostat] (top concentration tested 10000 nM)	4.68	2.86	9.87	10.6
CCn1c(=O)c(-c2cc[nH]n2)cc2c(C)nc(N)nc21 [Voxtalisib] (top concentration tested 10000 nM)	3.54	0	9.9	8.35
Oc1nc(-c2ccc(C(F)(F)F)cc2)nc2c1CSCC2 [XAV-939] (top concentration tested 10000 nM)	0	0	1.46	0.17
O=C(Nc1ccc(-c2ccnc(Nc3ccc(N4CCOCC4)cc3)n2)cc1)C1CCCN1 (stereo not given) [XL019] (top concentration tested 10000 nM)	0	0	2.07	1.98
COc1cc2c(Nc3ccc(Cl)c(Cl)c3F)ncnc2cc1OC[C@@H]1C[C@@H]2CN(C)C[C@@H]2C1 [XL-647] (top concentration tested 1000 nM)	0	0	0.88	1.72
COCC[n+]1c2c(n(Cc3cnccn3)c1C)C(=O)c1ccccc1C2=O [YM155] (top concentration tested 10000 nM)	27.5	12.8	34.7	30.4
FC(F)c1nc2ccccc2n1-c1nc(N2CCOCC2)nc(N2CCOCC2)n1 [ZSTK474] (top concentration tested 10000 nM)	6.5	0	16.6	12.8
c1ccc(Cn2c(-c3ccc(OC[C@H](C4CCNCC4)n4c(-c5ccccc5)nc5ccccc54)cc3)nc3ccccc32)cc1 [deltarasin] (top concentration tested 10000 nM)	8.33	7.78	8.74	7.04
